Measurements: patent publication US20170052170A1, “NOVEL CELL LINES AND METHODS” (priority 2009, published 2017)

Biological target: T1, umami taste receptor (T1R1/T1R3) (Homo sapiens, UniProt Q7RTX0+Q7RTX1, C757R)
T1 construct: expressed in transfected cells; host or cells: HEK293T (ATCC CRL-11268)
T1 sequence (Q7RTX1 21-841): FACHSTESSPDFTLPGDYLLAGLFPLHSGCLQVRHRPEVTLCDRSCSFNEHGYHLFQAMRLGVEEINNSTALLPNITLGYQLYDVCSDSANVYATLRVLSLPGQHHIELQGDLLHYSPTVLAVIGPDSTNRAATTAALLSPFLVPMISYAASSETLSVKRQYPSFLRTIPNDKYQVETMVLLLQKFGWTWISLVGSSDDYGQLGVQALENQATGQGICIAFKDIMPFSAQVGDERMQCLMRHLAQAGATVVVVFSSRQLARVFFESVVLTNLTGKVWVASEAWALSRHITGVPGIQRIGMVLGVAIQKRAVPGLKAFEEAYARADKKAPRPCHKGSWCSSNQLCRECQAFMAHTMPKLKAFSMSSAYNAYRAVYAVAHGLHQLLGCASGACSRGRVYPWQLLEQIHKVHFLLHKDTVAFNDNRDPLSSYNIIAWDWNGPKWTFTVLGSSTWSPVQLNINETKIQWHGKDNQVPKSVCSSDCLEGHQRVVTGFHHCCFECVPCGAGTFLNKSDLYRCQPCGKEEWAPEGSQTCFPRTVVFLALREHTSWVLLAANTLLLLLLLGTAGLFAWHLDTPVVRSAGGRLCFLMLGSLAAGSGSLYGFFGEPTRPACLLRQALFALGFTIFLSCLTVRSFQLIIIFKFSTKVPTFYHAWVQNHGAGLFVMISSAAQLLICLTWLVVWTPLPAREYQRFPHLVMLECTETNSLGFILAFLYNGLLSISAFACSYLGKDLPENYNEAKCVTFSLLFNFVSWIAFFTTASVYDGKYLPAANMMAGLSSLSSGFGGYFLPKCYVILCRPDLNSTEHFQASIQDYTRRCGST
T1 sequence (Q7RTX0 21-852 C757R): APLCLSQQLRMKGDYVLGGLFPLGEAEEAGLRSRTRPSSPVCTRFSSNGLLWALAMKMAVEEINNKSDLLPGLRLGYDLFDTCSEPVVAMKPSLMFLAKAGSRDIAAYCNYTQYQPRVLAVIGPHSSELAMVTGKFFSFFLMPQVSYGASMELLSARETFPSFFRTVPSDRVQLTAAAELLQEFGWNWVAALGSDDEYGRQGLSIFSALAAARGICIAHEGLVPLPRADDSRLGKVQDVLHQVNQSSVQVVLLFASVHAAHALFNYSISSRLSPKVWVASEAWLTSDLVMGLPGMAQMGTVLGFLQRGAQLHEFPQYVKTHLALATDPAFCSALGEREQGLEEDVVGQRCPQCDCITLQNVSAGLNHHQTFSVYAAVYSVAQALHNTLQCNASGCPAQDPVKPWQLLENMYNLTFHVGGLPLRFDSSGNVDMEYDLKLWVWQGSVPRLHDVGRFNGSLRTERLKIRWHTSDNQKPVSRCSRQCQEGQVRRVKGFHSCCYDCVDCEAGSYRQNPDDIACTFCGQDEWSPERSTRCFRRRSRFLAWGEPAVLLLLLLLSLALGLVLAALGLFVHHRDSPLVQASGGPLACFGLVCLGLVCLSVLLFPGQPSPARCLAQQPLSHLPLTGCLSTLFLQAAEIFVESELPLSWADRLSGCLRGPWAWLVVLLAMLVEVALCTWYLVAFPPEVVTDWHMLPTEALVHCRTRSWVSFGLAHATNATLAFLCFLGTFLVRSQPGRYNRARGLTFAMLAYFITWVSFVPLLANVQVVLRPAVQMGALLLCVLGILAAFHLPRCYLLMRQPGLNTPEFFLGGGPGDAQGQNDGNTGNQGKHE
Assay: Umami cell-based calcium flux assay, HEK293T cells expressing T1R1, T1R3 and mouse Gα15
Settings: FIG. 6; high density, coated plates, low glucose media, serum deprivation

O=C(CO)[C@@H](O)[C@H](O)[C@H](O)CO [fructose]
response of cells grown in the "Final" growth conditions: not
